Earlier results, collected in PubChem BioAssay AID1259409 (Chemical Carcinogenesis Research Information System (CCRIS), 2018).

Test system: rodent chemically induced tumor inhibition, incidence and multiplicity
Assay: CCRIS tumor inhibitor studies
Settings: Route [Inhibitor]: ORAL

## Cc1c(-c2cnccn2)ssc1=S
Carcinogen: DIETHYLNITROSAMINE, 55-18-5, Dose [Inhibitor]: 0, 600 MG/KG DIET FOR DURATION OF STUDY BEGINNING 1 WK PRIOR TO CARCINOGEN TREATMENT (STUDY DURATION: 25 WK), Species: HAMSTER, Strain/Sex: SYRIAN/MALE, Target Tissue: Type of Lesion: TRACHEA: PAPILLOMA, Dose [Carcinogen]: 17.8 MG/KG BW 2/WK FOR 20 WK, Promoter: NONE USED
  tumour outcome (control, treated, inhibition, significance): 100%, 95%, 5%, not significant
Carcinogen: N-BUTYL-N(4-HYDROXYBUTYL)NITROSAMINE, 3817-11-6, Dose [Inhibitor]: 0, 250 MG/KG DIET FOR 6 MO BEGINNING 1 WK PRIOR TO CARCINOGEN TREATMENT (STUDY DURATION: 6 MO), Species: MOUSE, Strain/Sex: BDF/MALE, Target Tissue: Type of Lesion: URINARY BLADDER: CARCINOMA, Dose [Carcinogen]: 7.5 MG IN 0.1 ML ETHANOL:WATER (20:80) 1/WK FOR 8 WK, Promoter: NONE USED
  tumour outcome (control, treated, inhibition, significance): 35/78 (45%), 23/76 (30%), 33%, p<0.05
Carcinogen: N-BUTYL-N-(4-HYDROXYBUTYL)NITROSAMINE, 3817-11-6, Dose [Inhibitor]: 0, 100 MG/KG DIET FOR 6 MO BEGINNING 1 WK PRIOR TO CARCINOGEN TREATMENT (STUDY DURATION: 6 MO), Species: MOUSE, Strain/Sex: BDF/MALE, Target Tissue: Type of Lesion: URINARY BLADDER: CARCINOMA, Dose [Carcinogen]: 7.5 MG IN 0.1 ML ETHANOL:WATER (20:80) 1 WK FOR 8 WK, Promoter: NONE USED
  tumour outcome (control, treated, inhibition, significance): 27/70 (39%), 27/70 (39%), 0%, not significant
Carcinogen: N-BUTYL-N-(4-HYDROXYBUTYL)NITROSAMINE, 3817-11-6, Dose [Inhibitor]: 0, 200 MG/KG DIET FOR 6 MO BEGINNING 1 WK PRIOR TO CARCINOGEN TREATMENT (STUDY DURATION: 6 MO), Species: MOUSE, Strain/Sex: BDF/MALE, Target Tissue: Type of Lesion: URINARY BLADDER: CARCINOMA, Dose [Carcinogen]: 7.5 MG IN 0.1 ML ETHANOL:WATER (20:80) 1/WK FOR 8 WK, Promoter: NONE USED
  tumour outcome (control, treated, inhibition, significance): 30/73 (41%), 27/71 (38%), 7%, not calculated
Carcinogen: N-BUTYL-N-(4-HYDROXYBUTYL)NITROSAMINE, 3817-11-6, Dose [Inhibitor]: 0, 500 MG/KG DIET FOR 76 D THEN 125 MG/KG DIET FOR DURATION OF STUDY (STUDY DURATION: 6 MO), Species: MOUSE, Strain/Sex: BDF/MALE, Target Tissue: Type of Lesion: URINARY BLADDER: CARCINOMA, Dose [Carcinogen]: 7.5 MG IN 0.1 ML ETHANOL:WATER (20:80) 1/WK FOR 8 WK, Promoter: NONE USED
  tumour outcome (control, treated, inhibition, significance): 35/78 (45%), 23/78 (29%), 36%, p<0.05
Carcinogen: N-METHYL-N'-NITRO-N-NITROSOGUANIDINE, 70-25-7, Dose [Inhibitor]: 0, 0.02% IN DIET FOR 12 WK BEGINNING 1 WK PRIOR TO CARCINOGEN TREATMENT (STUDY DURATION: 80 WK), Species: RAT, Strain/Sex: WISTAR/MALE, Target Tissue: Type of Lesion: GLANDULAR STOMACH: ADENOCARCINOMA, Dose [Carcinogen]: 100 PPM IN DRINKING WATER FOR 10 WK, Promoter: NONE USED
  tumour outcome (control, treated, inhibition, significance): 17/30 (57%), 11/30 (37%), 35%, not calculated
Carcinogen: N-METHYL-N'-NITRO-N-NITROSOGUANIDINE, 70-25-7, Dose [Inhibitor]: 0, 0.04% IN DIET FOR 12 WK BEGINNING 1 WK PRIOR TO CARCINOGEN TREATMENT (STUDY DURATION: 80 WK), Species: RAT, Strain/Sex: WISTAR/MALE, Target Tissue: Type of Lesion: GLANDULAR STOMACH: ADENOCARCINOMA, Dose [Carcinogen]: 100 PPM IN DRINKING WATER FOR 10 WK, Promoter: NONE USED
  tumour outcome (control, treated, inhibition, significance): 17/30 (57%), 5/30 (17%), 70%, p<0.01
Carcinogen: N-METHYL-N'-NITRO-N-NITROSOGUANIDINE, 70-25-7, Dose [Inhibitor]: 0, 0.04% IN DIET FOR 12 WK BEGINNING 1 WK PRIOR TO CARCINOGEN TREATMENT (STUDY DURATION: 81 WK), Species: RAT, Strain/Sex: WISTAR/MALE, Target Tissue: Type of Lesion: GLANDULAR STOMACH: ADENOCARCINOMA, Dose [Carcinogen]: 100 PPM IN DRINKING WATER FOR 10 WK, Promoter: NONE USED
  tumour outcome (control, treated, inhibition, significance): 17/30 (57%), 5/30 (17%), 70%, p<0.01
Carcinogen: N-METHYL-N'-NITRO-NITROSOGUANIDINE, 70-25-7, Dose [Inhibitor]: 0, 0.02% IN DIET FOR 12 WK BEGINNING 1 WK PRIOR TO CARCINOGEN TREATMENT (STUDY DURATION: 81 WK), Species: RAT, Strain/Sex: WISTAR/MALE, Target Tissue: Type of Lesion: GLANDULAR STOMACH: ADENOCARCINOMA, Dose [Carcinogen]: 100 PPM IN DRINKING WATER FOR 10 WK, Promoter: NONE USED
  tumour outcome (control, treated, inhibition, significance): 17/30 (57%), 11/30 (37%), 35%, not significant
Carcinogen: N-NITROSOBIS(2-OXOPROPYL)AMINE, 60599-38-4, Dose [Inhibitor]: 0, 300 MG/KG IN DIET FOR 28 WK BEGINNING 2 WK PRIOR TO CARCINOGEN TREATMENT (STUDY DURATION: 28 WK), Species: HAMSTER, Strain/Sex: SYRIAN/FEMALE, Target Tissue: Type of Lesion: PANCREAS: DUCTAL ADENOCARCINOMA, Dose [Carcinogen]: 15 MG/KG BW 1/WK FOR 12 WK, Promoter: NONE USED
  outcome: 17/19 (89%), 14/16 (88%), 1 %, not significant
Carcinogen: N-NITROSOBIS(2-OXOPROPYL)AMINE, 60599-38-4, Dose [Inhibitor]: 0, 600 MG/KG IN DIET FOR 28 WK BEGINNING 2 WK PRIOR TO CARCINOGEN TREATMENT (STUDY DURATION: 28 WK), Species: HAMSTER, Strain/Sex: SYRIAN/FEMALE, Target Tissue: Type of Lesion: PANCREAS: DUCTAL ADENOCARCINOMA, Dose [Carcinogen]: 15 MG/KG BW 1/WK FOR 12 WK, Promoter: NONE USED
  tumour outcome (control, treated, inhibition, significance): 17/19 (89%), 9/15 (60%), 33%, p<0.05
Carcinogen: NITROSOBIS(2-OXOPROPYL)AMINE [60599-38-4], Dose [Inhibitor]: 200 PPM IN DIET FOR 4 WK BEGINNING 1 WK PRIOR TO FIRST CARCINOGEN DOSE (STUDY DURATION: 52 WK), Species: HAMSTER, Strain/Sex: SYRIAN/FEMALE, Target Tissue: Type of Lesion: GALL BLADDER: ADENOMA, Dose [Carcinogen]: 10 MG/KG BW 1X/WK FOR 3 WK (STUDY DURATION: 52 WK)
  tumour outcome (control, treated, inhibition, significance): 13.3%, 21.7%, -63%, not significant
Carcinogen: NITROSOBIS(2-OXOPROPYL)AMINE [60599-38-4], Dose [Inhibitor]: 200 PPM IN DIET FOR 4 WK BEGINNING 1 WK PRIOR TO FIRST CARCINOGEN DOSE (STUDY DURATION: 52 WK), Species: HAMSTER, Strain/Sex: SYRIAN/FEMALE, Target Tissue: Type of Lesion: KIDNEY: RENAL CELL ADENOMA, Dose [Carcinogen]: 10 MG/KG BW 1X/WK FOR 3 WK (STUDY DURATION: 52 WK)
  tumour outcome (control, treated, inhibition, significance): 3.3%, 3.4%, -3%, not significant
Carcinogen: NITROSOBIS(2-OXOPROPYL)AMINE [60599-38-4], Dose [Inhibitor]: 200 PPM IN DIET FOR 4 WK BEGINNING 1 WK PRIOR TO FIRST CARCINOGEN DOSE (STUDY DURATION: 52 WK), Species: HAMSTER, Strain/Sex: SYRIAN/FEMALE, Target Tissue: Type of Lesion: KIDNEY: RENAL CELL CARCINOMA, Dose [Carcinogen]: 10 MG/KG BW 1X/WK FOR 3 WK (STUDY DURATION: 52 WK)
  tumour outcome (control, treated, inhibition, significance): 6.7%, 10.3%, -54%, not significant
Carcinogen: NITROSOBIS(2-OXOPROPYL)AMINE [60599-38-4], Dose [Inhibitor]: 200 PPM IN DIET FOR 4 WK BEGINNING 1 WK PRIOR TO FIRST CARCINOGEN DOSE (STUDY DURATION: 52 WK), Species: HAMSTER, Strain/Sex: SYRIAN/FEMALE, Target Tissue: Type of Lesion: LIVER: CHOLANGIOCELLULAR ADENOMA, Dose [Carcinogen]: 10 MG/KG BW 1X/WK FOR 3 WK (STUDY DURATION: 52 WK)
  tumour outcome (control, treated, inhibition, significance): 6.7%, 0.0%, 100%, not significant
Carcinogen: NITROSOBIS(2-OXOPROPYL)AMINE [60599-38-4], Dose [Inhibitor]: 200 PPM IN DIET FOR 4 WK BEGINNING 1 WK PRIOR TO FIRST CARCINOGEN DOSE (STUDY DURATION: 52 WK), Species: HAMSTER, Strain/Sex: SYRIAN/FEMALE, Target Tissue: Type of Lesion: LIVER: CHOLANGIOCELLULAR CARCINOMA, Dose [Carcinogen]: 10 MG/KG BW 1X/WK FOR 3 WK (STUDY DURATION: 52 WK)
  outcome: 0.0%, 10.3%, -100%, not significant
